Experimental findings from PubChem BioAssay (NCI) are described below.

In the test the test system is P388/ADR leukemia. The test is described as follows: NCI tumour cell line growth inhibition, 48 h.

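In this assay, cells in 96-well plates receive the compound at five concentrations for 48 hours. Endpoints are linearly interpolated between the surrounding concentrations. TGI: concentration producing complete growth inhibition.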

Consider `COc1cccc2c1C(=O)c1c(O)c3c(c(O)c1C2=O)C[C@@](O)(C(=O)CO)C[C@@H]3OC1CC(N)CC(C)O1` (some centres not stated), for which the TGI amounted to 2960 nM. For the compound `COC(=O)C[C@](O)(CCCC(C)(C)O)C(=O)O[C@@H]1C(OC)=C[C@]23CCCN2CCc2cc4c(cc2[C@H]13)OCO4`, the TGI was determined as 1350 nM.
